This assay addresses Nitric oxide synthase, brain (Bos taurus). The assay can be described thus: Inhibition against neuronal nitric oxide synthase (nNOS) from bovine brain was determined.

One may read the Ki as a dissociation constant, usually derived from enzyme kinetics or from competition with a known ligand. Read a high Ki as lower affinity. For the molecule `C#CCNC(=N)N` [amino(prop-2-ynylamino)methaniminium], the affinity, expressed as Ki, was 12 mM.

Source of the values: BindingDB's records for doi:10.1016/S0960-894X(97)00241-2 (1997).
